In data set [1] the test system is HIV (strain NL4-3). Type of data set: cell-based. To be noted: for PH Titers: HuT78 cells, 5 uM pretreatment, 10 uM after infection. The text has this: Controls used water in place of peptide.
In data set [2] the test system is truncated functional form of TAR RNA (SEQ ID NO:13). The experiment in a line: RNA gel mobility shift TAR-binding assay. More on the design: species or system HIV. As to conditions: relative to tat (1-86) and the oligopeptide representing the tat basic domain. The procedure:
This assay generally involves the incubation of a selected oligopeptide with gel-purified, radio-labelled TAR RNA, or tat-binding fragment of TAR RNA, that has been produced either by direct synthesis or through transcription of a corresponding DNA template. Samples are loaded onto non-denaturing polyacrylamide gel and subjected to electrophoresis, and then migration of labelled RNA through the gel is visualized on gel-exposed, X-ray film. Oligopeptides which bind TAR are identified in this assay by their characteristic, retarded migration on the gel, relative to TAR RNA to which no oligopeptide has bound. In this mobility shift assay, oligopeptides having an "enhanced" affinity for binding TAR RNA will resolve on the gel as bands which, in addition to displaying the retarded migration pattern characteristic of TAR-binding oligopeptides, will also appear with greater intensity and/or size than a band containing TAR RNA bound to tat (1-86).
(§1) TAR-binding affinity of the oligopeptides relative to HIV tat(1-86) and relative to tat fragments representing the tat basic domain, was evaluated by RNA gel mobility shift assay using as ligand a truncated functional form of TAR RNA having the sequence (SEQ ID NO:13) shown below.
Synthesis of the TAR fragment and its variant analogue was accomplished as described by Roy et al. in Genes and Development, 1990, 4:1365. […]

Data set [3] relates to variant of TAR (SEQ ID NO:14) which does not bind tat. The experiment in a line: RNA gel mobility shift assay with non-functional TAR variant (specificity). Format: binding, HIV. As to conditions: functional TAR fragment vs non-functional TAR variant. The procedure: as §1
Synthesis of the TAR fragment and its variant analogue was accomplished as described by Roy et al. in Genes and Development, 1990, 4:1365. The TAR-binding assay was also performed in the manner reported by Roy et al, supra, which is incorporated herein by reference.

In data set [4] the test system is yeast tRNA. The experiment in a line: TAR binding compared with yeast tRNA binding.
For data set [5], the system named is HuT78 cells. The experiment in a line: Host cell replication in presence of peptide.
Data set [6] concerns tat. As to conditions: Green et al, Cell 1989, 58:215; cited from earlier work.

Several values for one entry are separate records, joined by “and”; a condition that tells them apart may be missing. Equal values may be shown once. Read-outs that look alike come from different tables or passages of the source.

For the compound `CC(=O)N[C@H](CCCNC(=N)N)C(=O)N[C@H](CCCCN)C(=O)N[C@H](CCCCN)C(=O)N[C@H](CCCNC(=N)N)C(=O)N[C@H](CCCNC(=N)N)C(=O)N[C@H](CCC(N)=O)C(=O)N[C@H](CCCNC(=N)N)C(=O)N[C@H](CCCNC(=N)N)C(=O)N[C@H](CCCNC(=N)N)C(N)=O` [4G, acetyl-[D-(Arg--Lys--Lys--Arg--Arg--Gln--Arg--Arg--Arg)]--NH2], the “HIV inhibition / resistance to viral infection” value in data set [1] (5 uM concentration) is reported as “positive effects on HIV inhibition”. For the same compound, the “PH Titers” value was 312.1 pg/mL in data set [1] (7 Day Pretreatment, Day 4 after infection, listed as 4G1); 336.1 pg/mL in data set [1] (7 Day Pretreatment, Day 4 after infection, listed as 4G2); 371.5 pg/mL in data set [1] (7 Day Pretreatment, Day 7 after infection, listed as 4G1); 446.8 pg/mL in data set [1] (7 Day Pretreatment, Day 7 after infection, listed as 4G2); 340.9 pg/mL in data set [1] (24 Hrs Pretreatment, Day 4 after infection, listed as 4G1); 356.9 pg/mL in data set [1] (24 Hrs Pretreatment, Day 4 after infection, listed as 4G2). Further, the “PH Titers” value is 721.1 pg/mL in data set [1] (24 Hrs Pretreatment, Day 7 after infection, listed as 4G1) and 851.8 pg/mL in data set [1] (24 Hrs Pretreatment, Day 7 after infection, listed as 4G2).
In the case of `CC(=O)N[C@H](CCCNC(=N)N)C(=O)N[C@H](CCCNC(=N)N)C(=O)N[C@H](CCCNC(=N)N)C(=O)N[C@H](CCCNC(=N)N)C(=O)N[C@H](CCCNC(=N)N)C(=O)N[C@H](CCCNC(=N)N)C(=O)N[C@H](CCCNC(=N)N)C(=O)N[C@H](CCCNC(=N)N)C(=O)N[C@H](CCCNC(=N)N)C(N)=O` [4C, acetyl-[D-Arg]9 --NH2], the TAR-binding affinity entry in data set [2] is reported as “TAR-binding affinity comparable to the basic domain of wild type tat”. In data set [3], the “specificity for binding to the functional TAR fragment relative to the TAR variant” value is listed as “specificity comparable to the wild type basic domain”. The “specificity of TAR binding compared with yeast tRNA binding” value in data set [4] is “specificity of binding has also been confirmed”. The “PH Titers” value in data set [1] (7 Day Pretreatment, Day 4 after infection, listed as 4C1) is 168.4 pg/mL and 98.08 pg/mL; in data set [1] (7 Day Pretreatment, Day 4 after infection, listed as 4C2) it was 131.5 pg/mL and 93.76 pg/mL; in data set [1] (14 Day Pretreatment, Day 4 after infection, listed as 4C1), 152.5 pg/mL; in data set [1] (14 Day Pretreatment, Day 4 after infection, listed as 4C2), 129.0 pg/mL; in data set [1] (14 Day Pretreatment, Day 7 after infection, listed as 4C1), 175.1 pg/mL; in data set [1] (14 Day Pretreatment, Day 7 after infection, listed as 4C2) it was 133.6 pg/mL. Further, in data set [1] (at the concentration tested (5 uM), FIG. 1), the “inhibition of viral replication, as measured by p24 assay” value is recorded as at least 95%. Further, in data set [5] (5 uM), the “inhibition of host cell replication” value was “no apparent inhibition of host cell replication”. The “effect on cell replication” value in data set [5] (100 uM, separate experiments) is recorded as “no significant detrimental effect on cell replication”.
As for “Arg--Lys--Lys--Arg--Arg--Gln--Arg--Arg--Arg”, in data set [6], the tat antagonist activity result is recorded as “Weak tat antagonist activity”.

Source of the values: patent publication US5789531A, “Peptide-based inhibitors of HIV replication” (Allex Biopharmaceuticals, Inc., priority 1995, dated 1998).
